Source: PubChem BioAssay AID248 (DTP/NCI, 2004)
Values joined by “and” are separate entries in the source; they are usually repeats but may differ in a detail not shown here. Identical values can stand only once. Inconclusive results and toxic doses are left out. Rule as the data show it: active = T/C of 150% or more; inactive = T/C below 125%.

Test system: L1210 leukemia ip in BDF1 mice, survival T/C
Experiment: NCI In Vivo Anticancer Drug Screen. Data for tumor model L1210 Leukemia (intraperitoneal) in B6D2F1 (BDF1) mice
Details: endpoint: mean survival time, higher = longer survival
Method in brief: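 Survival endpoint. Drug-treated group vs vehicle group, expressed as T divided by C. Tumor passaged by transplantation.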

[1] = dose: 100.0 mg/kg/injection, schedule: Q01DX001 (ip), vehicle: carboxymethylcellulose (CMC)
[2] = dose: 200.0 mg/kg/injection, schedule: Q01DX001 (ip), vehicle: carboxymethylcellulose (CMC)
[3] = dose: 400.0 mg/kg/injection, schedule: Q01DX001 (ip), vehicle: carboxymethylcellulose (CMC)
[4] = dose: 100.0 mg/kg/injection, schedule: Q01DX009 (ip), vehicle: Klucel (hydroxypropylcellulose) (HPC)
[5] = dose: 100.0 mg/kg/injection, schedule: Q04DX002 (ip), vehicle: Klucel (hydroxypropylcellulose) (HPC)
[6] = dose: 200.0 mg/kg/injection, schedule: Q01DX009 (ip), vehicle: Klucel (hydroxypropylcellulose) (HPC)
[7] = dose: 200.0 mg/kg/injection, schedule: Q04DX002 (ip), vehicle: Klucel (hydroxypropylcellulose) (HPC)
[8] = dose: 400.0 mg/kg/injection, schedule: Q01DX009 (ip), vehicle: Klucel (hydroxypropylcellulose) (HPC)
[9] = dose: 100.0 mg/kg/injection, schedule: Q04DX003 (ip), vehicle: saline with Tween-80
[10] = dose: 200.0 mg/kg/injection, schedule: Q04DX003 (ip), vehicle: saline with Tween-80
[11] = dose: 400.0 mg/kg/injection, schedule: Q04DX003 (ip), vehicle: saline with Tween-80
[12] = dose: 100.0 mg/kg/injection, schedule: Q01DX009 (sc), vehicle: olive oil, sesame oil, peanut oil
[13] = dose: 100.0 mg/kg/injection, schedule: Q04DX003 (sc), vehicle: olive oil, sesame oil, peanut oil
[14] = dose: 200.0 mg/kg/injection, schedule: Q04DX003 (sc), vehicle: olive oil, sesame oil, peanut oil

Measured: T/C

C[C@]12CC[C@@H]3c4ccc(O)cc4CC[C@H]3[C@@H]1C[C@H](O)C2
inactive: dose: 100.0 mg/kg/injection, schedule: Q01DX001 (sc), vehicle: steriod suspending solution 98 % of control | dose: 100.0 mg/kg/injection, schedule: Q04DX003 (sc), vehicle: steriod suspending solution 96 % of control | dose: 200.0 mg/kg/injection, schedule: Q01DX001 (sc), vehicle: steriod suspending solution 102 % of control | dose: 200.0 mg/kg/injection, schedule: Q04DX003 (sc), vehicle: steriod suspending solution 104 % of control | dose: 400.0 mg/kg/injection, schedule: Q01DX001 (sc), vehicle: steriod suspending solution 105 % of control | dose: 400.0 mg/kg/injection, schedule: Q04DX003 (sc), vehicle: steriod suspending solution 94 % of control

c1cc[n+]2c(c1)CC[n+]1ccccc1CC2
inactive: dose: 50.0 mg/kg/injection, schedule: Q01DX001 (ip), vehicle: carboxymethylcellulose (CMC) 106 % of control | [1] 100 % of control | [2] 122 % of control | [3] 106 % of control

O/N=C(\Cl)c1ccc(/C(Cl)=N\O)cc1
inactive: dose: 5.0 mg/kg/injection, schedule: Q01DX001 (ip), vehicle: saline 111 % of control | dose: 10.0 mg/kg/injection, schedule: Q01DX001 (ip), vehicle: saline 105 % of control | dose: 20.0 mg/kg/injection, schedule: Q01DX001 (ip), vehicle: saline 100 % of control

Cc1cc(Cl)cc2sc(=S)[nH]c12
inactive: [4] 96 % of control and 108 % of control | [5] 110 % of control | [6] 86 % of control and 92 % of control | [7] 110 % of control | [8] 87 % of control | dose: 400.0 mg/kg/injection, schedule: Q04DX002 (ip), vehicle: Klucel (hydroxypropylcellulose) (HPC) 110 % of control

CCSc1ccc2c(cc1=O)C(NC(C)=O)CCc1cc(OC)c(OC)c(OC)c1-2 (stereo unspecified)
inactive: dose: 25.0 mg/kg/injection, schedule: Q04DX002 (ip), vehicle: Klucel (hydroxypropylcellulose) (HPC) 105 % of control | dose: 50.0 mg/kg/injection, schedule: Q04DX002 (ip), vehicle: Klucel (hydroxypropylcellulose) (HPC) 102 % of control

CCOC(=O)/C(=C\c1ccc2c(c1)OCO2)NC(=O)c1ccccc1
inactive: dose: 50.0 mg/kg/injection, schedule: Q01DX009 (ip), vehicle: saline 102 % of control | dose: 100.0 mg/kg/injection, schedule: Q01DX009 (ip), vehicle: saline 102 % of control | dose: 100.0 mg/kg/injection, schedule: Q04DX003 (ip), vehicle: saline 98 % of control | dose: 200.0 mg/kg/injection, schedule: Q01DX009 (ip), vehicle: saline 118 % of control | dose: 200.0 mg/kg/injection, schedule: Q04DX003 (ip), vehicle: saline 92 % of control | dose: 400.0 mg/kg/injection, schedule: Q01DX009 (ip), vehicle: saline 100 % of control | dose: 400.0 mg/kg/injection, schedule: Q04DX003 (ip), vehicle: saline 92 % of control

COc1cc2ccc(Cc3nccc4cc(OC)c(OC)cc34)cc2cc1OC
inactive: [4] 91 % of control | dose: 100.0 mg/kg/injection, schedule: Q04DX003 (ip), vehicle: Klucel (hydroxypropylcellulose) (HPC) 100 % of control | [6] 106 % of control | dose: 200.0 mg/kg/injection, schedule: Q04DX003 (ip), vehicle: Klucel (hydroxypropylcellulose) (HPC) 92 % of control | [8] 101 % of control | dose: 400.0 mg/kg/injection, schedule: Q04DX003 (ip), vehicle: Klucel (hydroxypropylcellulose) (HPC) 92 % of control

COC(=O)C12CCC(=O)CC1(O)c1ccc(OC)cc1CC2 (stereo unspecified)
inactive: dose: 100.0 mg/kg/injection, schedule: Q01DX001 (ip), vehicle: Klucel (hydroxypropylcellulose) (HPC) 104 % of control | dose: 200.0 mg/kg/injection, schedule: Q01DX001 (ip), vehicle: Klucel (hydroxypropylcellulose) (HPC) 107 % of control | dose: 400.0 mg/kg/injection, schedule: Q01DX001 (ip), vehicle: Klucel (hydroxypropylcellulose) (HPC) 107 % of control

Cc1ccc(S(=O)(=O)NC(=O)c2c3ccccc3cc3ccccc23)cc1
inactive: dose: 100.0 mg/kg/injection, schedule: Q01DX001 (ip), vehicle: acetone 104 % of control | dose: 200.0 mg/kg/injection, schedule: Q01DX001 (ip), vehicle: acetone 104 % of control | dose: 400.0 mg/kg/injection, schedule: Q01DX001 (ip), vehicle: acetone 96 % of control

COc1ccc(C2(C(=O)O)CCCC2)cc1
inactive: dose: 100.0 mg/kg/injection, schedule: Q01DX009 (ip), vehicle: saline with Tween-80 102 % of control | [9] 103 % of control | dose: 200.0 mg/kg/injection, schedule: Q01DX009 (ip), vehicle: saline with Tween-80 96 % of control | [10] 108 % of control | [11] 97 % of control

CC(=O)c1cccc(NC(=O)Oc2ccc(-c3ccccc3)cc2Cl)c1
inactive: [4] 98 % of control | [6] 97 % of control | [8] 106 % of control

C1CCC(=NN=C2CCCCC2)CC1
inactive: [12] 103 % of control | [13] 100 % of control | dose: 200.0 mg/kg/injection, schedule: Q01DX009 (sc), vehicle: olive oil, sesame oil, peanut oil 100 % of control | [14] 106 % of control | dose: 400.0 mg/kg/injection, schedule: Q01DX009 (sc), vehicle: olive oil, sesame oil, peanut oil 101 % of control | dose: 400.0 mg/kg/injection, schedule: Q04DX003 (sc), vehicle: olive oil, sesame oil, peanut oil 105 % of control

CCN(CCO)c1ccc(N)cc1C
inactive: dose: 0.5 mg/kg/injection, schedule: Q04DX003 (ip), vehicle: saline 97 % of control | dose: 1.0 mg/kg/injection, schedule: Q04DX003 (ip), vehicle: saline 95 % of control | dose: 2.0 mg/kg/injection, schedule: Q04DX003 (ip), vehicle: saline 97 % of control | dose: 6.25 mg/kg/injection, schedule: Q04DX003 (ip), vehicle: saline 88 % of control | dose: 12.5 mg/kg/injection, schedule: Q04DX003 (ip), vehicle: saline 102 % of control

NC(N)=N/N=C\c1c[nH]c2ccc(Br)cc12
inactive: dose: 15.0 mg/kg/injection, schedule: Q01DX Z (ip), vehicle: saline 96 % of control | dose: 30.0 mg/kg/injection, schedule: Q01DX Z (ip), vehicle: saline 113 % of control | dose: 60.0 mg/kg/injection, schedule: Q01DX Z (ip), vehicle: saline 103 % of control | dose: 120.0 mg/kg/injection, schedule: Q01DX Z (ip), vehicle: saline 106 % of control | dose: 240.0 mg/kg/injection, schedule: Q01DX Z (ip), vehicle: saline 98 % of control | dose: 240.0 mg/kg/injection, schedule: Q01DX Z (oral), vehicle: saline 94 % of control | dose: 480.0 mg/kg/injection, schedule: Q01DX Z (oral), vehicle: saline 94 % of control

COC(=O)C1C=CCC=C1OC (stereo unspecified)
inactive: [9] 96 % of control | [10] 105 % of control | [11] 91 % of control

O=C(CCC(=O)c1ccccc1)OCc1ccccc1
inactive: [5] 96 % of control | [7] 86 % of control

CCCCCCCCCCC(CCCCCCC)(CCCCCCCC)CCCCCCCCC (stereo unspecified)
inactive: dose: 133.0 mg/kg/injection, schedule: Q01DX001 (ip), vehicle: saline with Tween-80 102 % of control | dose: 200.0 mg/kg/injection, schedule: Q01DX001 (ip), vehicle: saline with Tween-80 107 % of control | dose: 300.0 mg/kg/injection, schedule: Q01DX001 (ip), vehicle: saline with Tween-80 102 % of control | dose: 400.0 mg/kg/injection, schedule: Q01DX001 (ip), vehicle: saline with Tween-80 101 % of control

Nc1c(Cl)c(Cl)c2c(c1Cl)C(O)c1cc(Cl)ccc1-2 (stereo unspecified)
inactive: [1] 89 % of control | [2] 95 % of control | [3] 93 % of control

[O]=[Sb]([OH])([OH])[c]1ccccc1
inactive: dose: 12.5 mg/kg/injection, schedule: Q04DX002 (ip), vehicle: saline with Tween-80 100 % of control | dose: 25.0 mg/kg/injection, schedule: Q04DX002 (ip), vehicle: saline with Tween-80 100 % of control | dose: 50.0 mg/kg/injection, schedule: Q01DX009 (sc), vehicle: olive oil, sesame oil, peanut oil 97 % of control | dose: 50.0 mg/kg/injection, schedule: Q04DX002 (ip), vehicle: saline with Tween-80 103 % of control | [12] 95 % of control | dose: 100.0 mg/kg/injection, schedule: Q04DX002 (ip), vehicle: saline with Tween-80 90 % of control | [13] 97 % of control | [14] 93 % of control
